Source: US20030026852A1, “Molecular iodine pharmaceutical composition” (SYMBOLLON CORPORATION, priority 2001, published 2003)

Legend:
[1] = administered orally; cited from earlier work
[2] = interaction of molecular iodine with mineral oil, UV-visible absorbance; type: physicochemical; conditions: elemental iodine dissolved in mineral oil, 300-600 nm
Description: The interaction of molecular iodine with mineral oil was evaluated. The following stock solutions were prepared for this experiment: 0.050 grams and 1.001 grams of elemental iodine crystals dissolved into about 80 ml of mineral oil in two different 100-ml flasks, and then filled to 100 ml with mineral oil. The absorbance spectrum between 300 and 600 nm for various mixtures of these two stock solutions were made in a UV/V is scanning spectrophotometer (Schimadzu 1125). The absorbance spectrums were analyzed and the extinction coefficient was calculated at appropriate wavelengths.
The UV-visible spectra of iodine-in-mineral oil presents two peaks in the range of 300-600 nm; one peak is at 302 nm and the other is at 522 nm (the maximum absorbance is at 522 nm). The absorbance is proportional to concentration as predicted by Beer's Law. […] The two peaks are at 302 nm and 522 nm and are slightly variable in the test concentration range. The extinction coefficients (moles per 1000 grams)^−1 (per cm)^−1) at 302 and 522 nm were calculated to be 219 and 905 respectively.

[3] = stability of a solution of molecular iodine in mineral oil at 40° C.; type: physicochemical
Description: The stability of a solution of molecular iodine in oil was measured. Crystals of elemental iodine were dissolved at room temperature in mineral oil. The concentrations of molecular iodine were approximately 0.6, 3.0 and 6.0 mg/mL. The absorbance was determined at 522 nm as a measure of the concentration of molecular iodine. Samples were stored in 500 mL amber glass bottles (Fisher Cat. No. 05-719-466) with Teflon lined screw-tops. The screw tops contained a septum to sample the fluids using a syringe without opening the bottle. The bottles were stored in an incubator at 40° C.
Samples were analyzed monthly to determine if there was a loss of molecular iodine. On the day of an analysis, a bottle was removed from the incubator, placed into room-temperature water covering approximately ¾ of the bottle, and allowed to cool for at least 6 hours. A sample was removed with a glass syringe and its absorbance was determined at 522 nm.

women = assay: six month study of molecular iodine in 111 women (IND #56,523); type: in vivo; conditions: 111 women, 0, 1.5, 3.0 or 6.0 mg per day for six months, in situ generation of molecular iodine
Description: To determine the potential for molecular iodine to cause hyperthyroidism or hypothyroidism 111 women daily were dosed with either 0, 1.5, 3.0 or 6.0 mg of molecular iodine per day for six months. This study was performed under the guidance of the FDA (IND #56,523). The dosage form used relied upon in situ generation of molecular iodine as described in U.S. Pat. No. 5,885,592 as opposed to the aqueous iodine therapy of Table 5. The total exposure to molecular iodine in this study was 3.619 subject years.

[4] = tested on: mammalian thyroid parameters; conditions: orally administered; cited from earlier work

SMILES | oral toxicity compared with iodide [1] | change of absorbance with time (stability in mineral oil) [2] | Percentage of Initial Absorbance (OD522nm) ([3]; 0.6 mg/mL I2 in mineral oil, Day 14) [%] | Percentage of Initial Absorbance (OD522nm) ([3]; 0.6 mg/mL I2 in mineral oil, Day 32) [%] | Percentage of Initial Absorbance (OD522nm) ([3]; 0.6 mg/mL I2 in mineral oil, Day 56) [%] | Percentage of Initial Absorbance (OD522nm) ([3]; 0.6 mg/mL I2 in mineral oil, Day 97) [%] | Percentage of Initial Absorbance (OD522nm) ([3]; 0.6 mg/mL I2 in mineral oil, Day 143) [%] | Percentage of Initial Absorbance (OD522nm) ([3]; 3.0 mg/mL I2 in mineral oil, Day 14) [%] | Percentage of Initial Absorbance (OD522nm) ([3]; 3.0 mg/mL I2 in mineral oil, Day 32) [%] | Percentage of Initial Absorbance (OD522nm) ([3]; 3.0 mg/mL I2 in mineral oil, Day 56) [%] | Percentage of Initial Absorbance (OD522nm) ([3]; 3.0 mg/mL I2 in mineral oil, Day 97) [%] | Percentage of Initial Absorbance (OD522nm) ([3]; 3.0 mg/mL I2 in mineral oil, Day 143) [%] | Percentage of Initial Absorbance (OD522nm) ([3]; 6.0 mg/mL I2 in mineral oil, Day 14) [%] | Percentage of Initial Absorbance (OD522nm) ([3]; 6.0 mg/mL I2 in mineral oil, Day 32) [%] | Percentage of Initial Absorbance (OD522nm) ([3]; 6.0 mg/mL I2 in mineral oil, Day 56) [%] | Percentage of Initial Absorbance (OD522nm) ([3]; 6.0 mg/mL I2 in mineral oil, Day 97) [%] | Percentage of Initial Absorbance (OD522nm) ([3]; 6.0 mg/mL I2 in mineral oil, Day 143) [%] | hyperthyroidism or hypothyroidism (women) | treatment-emergent adverse events, laboratory parameters, vital signs versus dose (women) | concentration negatively affecting mammalian thyroid parameters, fold less than for a comparable effect from molecular iodine [4] [fold]
II [I2, molecular iodine] | less toxic than iodide | did not change with time | 99.5 | 99.1 | 98.2 | 97.8 | 96.4 | 100.6 | 100.5 | 100.4 | 100.1 | 100.8 | 100.3 | 100.2 | 99.2 | 101.4 | 100.7 | No hyperthyroidism or hypothyroidism was observed | not associated with increases in incidence, severity and causality of treatment-emergent adverse events or clinically significant changes in laboratory parameters or vital signs | 
I [iodide] |  |  |  |  |  |  |  |  |  |  |  |  |  |  |  |  |  |  |  | 10
